# From patent US20210100777A1, “HEAT SHOCK PROTEIN (HSP) INHIBITION AND MONITORING EFFECTIVENESS THEREOF” (H. LEE MOFFITT CANCER CENTER AND RESEARCH INSTITUTE, INC., priority 2013, published 2021)
# Test system: matched pairs of vemurafenib naïve and resistant melanoma cell lines and melanoma cell lines with intrinsic resistance
# Test: Growth inhibition, MTT assay
# Type: cell-based
# Experimental: Growth inhibition. Cells were plated at a density of 2.5×10^4 cells per ml and left to grow overnight before being treated with increasing concentrations of vemurafenib or XL888. After 72 hours, the levels of growth inhibition were examined using the MTT assay (Smalley et al., Br. J. Cancer 96:445-9 (2007)). […] Vemurafenib and XL888 were dissolved in 100% DMSO and stored at −20° C. as a 10 mM solution.
# Statistical analysis of GI50 values. Triplicate experiments were performed for each cell line under each drug treatment. To estimate the IC50 values for each cell line for each treatment, a 4-parameter Hill equation was used to model the nonlinear sigmoid relationship between the drug concentration and % cell survival. Briefly,
# where x is the drug concentration, y is the % survival, ε is the error term. The four parameters in the model to estimate are: 1) the control-level effect (E); 2) the background-level effect (B); 3) the median effect concentration (GI50); and 4) the strength of the inhibition (m). The constraint of non-negative minimum background effect (B) is imposed so the model is biologically meaningful. Levenberg-Marquardt algorithm for nonlinear least squares was used to fit the model and estimate all four parameters for each cell line under each treatment. Estimated concentration at 50% cell survival, i.e., IC50, is estimated using the plugged-in parameters after model fitting. Note that when the control and background effects are 100% and 0%, respectively, the estimated GI50 and IC50 values would be identical. To compare the estimated IC50 values between the resistance and naïve paired of cell lines, after log transformation, a paired t-test was performed for each drug.
structure (smiles),measurement,setting,value
"CC[C@@H](C)Nc1cc(C(=O)N[C@@H]2C[C@H]3CC[C@@H](C2)N3c2ccc(C(=O)C3CC3)cn2)c(C)cc1C(N)=O [XL888, 5-((R)-sec-butylamino)-N1-((1R,3s,5S)-8-(5-(cyclopropanecarbonyl)pyridin-2-yl)-8-azabicyclo[3.2.1]octan-3-yl)-2-methylterephthalamide]",growth of the cell lines,"1 nM-10 μM, 72 hours, MTT",dose dependent decreases in the growth of all the cell lines
same,difference in growth inhibition / IC50 between naïve and resistant pairs of cell lines,"M229/M229R, M249/M249R, WM164/WM164R, 1205Lu/1205LuR, paired t-test",no significant difference in IC50 values
